The values below come from patent publication US20240279202A1 (NURIX THERAPEUTICS, INC., priority 2021, published 2024).

Series [1] in a line: Mouse PK analysis (blood/plasma concentration after oral administration). The conditions noted are these: mice; for concentration at 6 h: read-out: Cal. Conc. Total (μM) 6 h. The format is in vivo. As to the method: Compounds 1, 3, 7, and 42 were formulated and administered at 90 mg/kg to mice by oral gavage (PO). Blood was collected at defined time points (after 1, 2, and 6 hours) after compounds administration to determine PK parameters. Concentration increased through 6 hours. Six hours later mice were sacrificed and splenocytes were isolated and used to prepare protein lysates. Total protein levels were determined in the lysates using the BCA assay according to standard methods. Equal amounts of protein were then analyzed by Western blot to determine the level of ITK expression in each sample. ITK band intensities were measured using Alpha View software and the percent of ITK remaining in each test animal was determined relative to the mean of ITK levels in vehicle control samples.
Compounds 16, 17, and 18 were administered to mice orally. After 6 hours or 24 hours, splenocytes cells were harvested. ITK was evaluated by Western blotting. Plasma concentrations were determined by LC/MS/MS. Plasma samples were protein precipitated by addition of 100 μl of acetonitrile containing 50 ng/ml of internal standard. The resulting mixture was vortexed and centrifuged at 4000 RPM for 5 minutes. An aliquot of the resultant supernatant (75 μl) was added to 75 μl of 0.1% formic acid in water to constitute the final sample for injection. Samples were injected on a Shimadzu Exion LC Binary Gradient AD Pump HLPC system connected to a Sciex QTRAP 6500+mass spectrometer. Five μl of sample was injected onto a Waters Acquity UPLC BEH C18 column 130A (2.1×30 mm, […]) at 40° C. utilizing a flow rate of 700 μl/minute. Mobile Phase A was 0.1% formic acid in water and mobile phase B was 0.1% formic acid in acetonitrile. A linear gradient of 15-95% B over 1.0 minute was used. The mass spectrometer was operated in positive ion electrospray mode with multiple reaction monitoring for maximum sensitivity. Sciex Analyst software (version 1.6.3) was used for LC/MS/MS instrument control and acquisition. Compound concentration was determined against a standard curve of internal standard versus compound peak area ratio. Noncompartmental PK parameters were determined using […] software (version 8.2.0.4383) from Certara. Plasma concentrations from the LC/MS/MS analyses, dose, route of administration, and desired units were utilized for PK parameter calculations. […] FIG. 4C provides the concentration over time of compound 17 following in vivo oral administration in the 6 hour and 24 hour assays.
Cmax, Tmax and AUClast were all calculated using a WinNonLin Phoenix 64 v 8.2.0.4383. Using non-compartmental analysis, Tmax, Cmax and AUClast were determined as follows: • Tmax—Time of maximum observed concentration. • Cmax—Maximum observed concentration, occurring at time Tmax, as defined above. • AUClast—Area under the curve from the time of dosing to the time of the last measurable (positive) concentration (Tlast).

The next series addresses T1, ITK (Homo sapiens, UniProt Q08881).
T1 sequence (Q08881 1-620): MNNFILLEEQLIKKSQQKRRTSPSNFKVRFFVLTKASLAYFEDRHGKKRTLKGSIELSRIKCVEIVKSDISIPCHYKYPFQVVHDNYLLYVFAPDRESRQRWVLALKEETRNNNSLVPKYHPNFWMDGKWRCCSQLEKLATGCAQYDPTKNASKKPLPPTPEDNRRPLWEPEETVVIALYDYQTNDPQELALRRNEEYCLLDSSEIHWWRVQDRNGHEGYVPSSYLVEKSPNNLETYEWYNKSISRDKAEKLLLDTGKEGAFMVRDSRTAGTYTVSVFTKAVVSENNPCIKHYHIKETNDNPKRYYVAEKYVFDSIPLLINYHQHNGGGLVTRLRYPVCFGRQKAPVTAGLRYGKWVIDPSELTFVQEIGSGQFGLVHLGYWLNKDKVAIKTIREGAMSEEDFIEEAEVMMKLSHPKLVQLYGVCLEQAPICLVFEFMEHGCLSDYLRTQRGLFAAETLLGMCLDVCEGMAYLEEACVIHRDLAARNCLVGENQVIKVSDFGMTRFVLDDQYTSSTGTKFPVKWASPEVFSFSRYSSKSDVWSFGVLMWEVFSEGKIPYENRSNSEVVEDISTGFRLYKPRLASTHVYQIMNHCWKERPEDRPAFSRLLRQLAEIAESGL
Briefly: ITK degradation MSD (Meso Scale Discovery) assay. On the set-up: either human Jurkat (Clone E6-1 ATCC TIB-152) or Motl4 (ATCC CRL-1552), were plated; endogenous in cells; host or cells: Jurkat clone E6-1 (ATCC TIB-152) or Molt4 (ATCC CRL-1552). The following applies: Jurkat or Molt4 cells, 4 or 6 hrs. The format is cell-based. As to the method:
ITK Degradation MSD (Meso Scale Discovery) Assay Compound dilution series (7-point, 5 fold dilutions in DMSO, rows B-H with replicate in Column 1⁄2, 3⁄4, 5⁄6, 7,8, at 2000× the final required concentrations were prepared in 96 well plates (Falcon, cat. no. 353077). Row A, Column 1-8 were control DMSO. The 2000× solutions ranged from 2 mM to 128 nM (final assay concentration range 1 μM to […]). The 2000× solutions were added to cells in […], for a final DMSO concentration of 0.5% and final assay compound concentration of 1×. For the cells, either human Jurkat (Clone E6-1 ATCC TIB-152) or Motl4 (ATCC CRL-1552), were plated at 1×10^6 cells/mL, 100 μL/well ([…]) in complete RPMI (10% FBS, 1% L-glutamine). Cells were incubated for 4 or 6 hrs at 32° C./6% CO2. Following incubation, plates were centrifuged at 1200 rpm for 5 min. supernatant was removed and 50 μL of cell lysis buffer ((MSD Tris lysis buffer (R60TX), Complete Mini EDTA-free protease inhibitor (Sigma 11836170001), Protease Inhibitor Cocktail (Sigma, P2714), Phosphatase Inhibitor Cocktail 2 and 3 (Sigma, P5726 and P0044), and Benzonase (Sigma, E1014)) was added to each well. Plates were sealed and shook at 4° C. for 30 min. Plates were centrifuged and 45 μL was removed for plate assays. Assay plate preparation: Meso Scale Discovery (MSD) multi-array sm spot 96 well plates (Goat anti-Rabbit L^45-RA), were blocked with 3% BSA blocking buffer (3% Bovine Serum Albumin (Sigma A3059)+TBS 0.2% Tween-20) for 1 hr with gentle rocking at room temperature. Plates were then washed with 200 μL of 1× TBST (TBS 0.2% Tween-20) 3 times. After last wash, liquid was removed and 50 μL per well of capture antibody (abcam ITK Y402-ab32507) was added to plates at a 1:1000 dilution in blocking buffer (above). Plates were sealed and rocked at room temperature for 2 hrs. Plates were then washed 3 times with 200 μL of 1× TBST. After last wash, liquid was removed and 45 μL of cell lysate (from above) was added to each plate. Plates were sealed and rocked overnight at 4° C. Next day, cell lysates were removed, and assay plates were washed 3 times with 200 μL of 1× TBST. After last wash, liquid was removed and detection antibody (CST ITK (2F12) #2380) was added at 50 μL per well at a dilution of 1:1000 in blocking buffer. Plates were sealed and rocked at room temperature for 2 hrs. Plates were washed 3 times with 200 uL of 1× TBST. After last wash, liquid was removed, MSD Mouse anti-Rabbit sulfo tag (R32AC-1) was diluted to 1:1000 in blocking buffer. 50 μL was added to each well on the plate. Plates were sealed and incubated at room temperature for 1 hr. Plates were washed 3 times with 200 μL of 1× TBST. After last wash, liquid was removed and 150 μL of 1× MSD Read Buffer T ([…]) was then added to each well for ECL read out. For reading ECL signal, plate is read on a Meso Scale Discovery (MSD) MESO Sector S 600 plate reader. Percent ITK in then calculated as described below. Percent ITK remaining per sample was calculated as follows: [formula] Using Graphpad Prism, % ITK remaining values were plotted as a function of compound concentration. To determine DC50 and Dmax values, resulting curves were fit to the Prism curve-fitting equation “log(inhibitor) vs response-Variable slope (four parameters)” (reported best fit value IC50 used as DC50).

What is called DC50 is the concentration at which degradation of the target reaches its halfway point. Read a low DC50 as degradation at low concentration. The term Dmax denotes the largest share of the target that was removed. A high value points to deep degradation. On to `C[C@@]12Cc3[nH]nc(C(=O)Nc4cnn([C@H](c5ccccc5)C5CN(C(=O)C6CCN(c7ccc8c(c7)C(=O)N(C7CCC(=O)NC7=O)C8=O)CC6)C5)c4)c3C[C@@H]1C2(F)F` (stereo partly drawn) [Compound 38, (4aS,5aR)-N-(1-((1S)-(1-(1-(2-(2,6-dioxopiperidin-3-yl)-1,3-dioxoisoindolin-5-yl)piperidine-4-carbonyl)azetidin-3-yl)(phenyl)methyl)-1H-pyrazol-4-yl)-5,5-difluoro-5a-methyl-1,4,4a,5,5a,6-hexahydrocyclopropafindazole-3-carboxamide], for which the concentration at 2 h in series [1] (mouse, plasma, oral, 90 mg/kg, 2 h, read-out: Cal. Conc. Total (μM) 2 h) was found to be 0.0046 µM. In series [1] (mouse, plasma, oral, 90 mg/kg), the concentration at 6 h was determined as 0.0024 µM. At ITK, the DC50 turned out to be 0.2 nM and the maximal degradation (Dmax) worked out at 84%.
Consider `C[C@@]12Cc3[nH]nc(C(=O)Nc4cnn([C@H](c5ccccc5)C5CN(C(=O)C6CCN(c7ccc(C(=O)NC8CCC(=O)NC8=O)nc7)CC6)C5)c4)c3C[C@@H]1C2(F)F` (stereo partly drawn) [Compound 40, (4aS,5aR)-N-(1-((1S)-(1-(1-(6-((2,6-dioxopiperidin-3-yl)carbamoyl)pyridin-3-yl)piperidine-4-carbonyl)azetidin-3-yl)(phenyl)methyl)-1H-pyrazol-4-yl)-5,5-difluoro-5a-methyl-1,4,4a,5,5a,6-hexahydrocyclopropa[f]indazole-3-carboxamide], for which the “Cal. Conc. Total (μM) 2 h” value in series [1] (2 h) was “BQL”. The concentration at 6 h in series [1] (mouse, plasma, oral, 90 mg/kg) was determined as 0.009 µM. At ITK, this molecule returned a Dmax of 46%.
